Results reported in article PMC2880392 (Bioorganic & medicinal chemistry letters, 2010).
Like-named read-outs stand apart in the source and are kept apart here.

Key:
Format in all cases: cell-based
[1] = tested on: IIIB strain of HIV-1 (WT); test: Anti-HIV-1 activity, protection of infected MT-2 cells; settings: for EC50: Human immunodeficiency virus 1, IIIB; for anti-HIV-1 activity in words: wild-type HIV-1, MT-2 cells
[2] = tested on: HIV-1 Y181C variant strain; test: Anti-HIV-1 activity in MT-2 cells, Y181C variant strain; settings: Human immunodeficiency virus 1, MT2, read-out: Y181C EC50
[3] = tested on: HIV-1 K103N/Y181C variant strain; test: Anti-HIV-1 activity in MT-2 cells, K103N/Y181C variant strain; settings: Human immunodeficiency virus 1, MT2, read-out: K103N/Y181C EC50
[4] = MT2, read-out: Anti-HIV-1 Activity (EC50)

## Clc1cccc(Cl)c1Cc1nnc(Nc2ccc(COCc3ccsc3)cc2)o1 [Compound 1h]
[1]; [4]
  EC50: > 21000 nM

## N#Cc1ccc(Nc2ncc(Cc3c(F)cccc3F)o2)cc1 [Compound 3p]
[2]
  EC50: > 2700 nM

## OCc1ccc(Nc2ncc(Cc3c(F)cccc3F)o2)cc1Cl [Compound 3m]
[1]; 3m versus 3i
  enhancement of WT activity by addition of the chlorine (factor): 15

## Cc1ccnc2c1NC(=O)c1cccnc1N2C1CC1 [nevirapine, reference compound]
[3]
  EC50: > 2100 nM

## Clc1cccc(Cl)c1Cc1nnc(Nc2ccc(COCc3ccoc3)cc2)o1 [Compound 1g]
[1]; [4]
  EC50: > 21000 nM

## Clc1cccc(Cl)c1Cc1nnc(Nc2ccc(COCc3ccccc3)cc2)o1 [Compound 1b]
[1]; [4]
  EC50: > 21000 nM
[1]
  anti-HIV-1 activity in words: inactivity

## N#Cc1ccc(Nc2ncc(Cc3c(F)cccc3F)o2)cc1Cl [Compound 3q]
[3]
  EC50: > 2100 nM

## Fc1cccc(F)c1Cc1cnc(Nc2ccc(-c3cccnc3)c(Cl)c2)o1 [Compound 3v]
[1]
  anti-HIV-1 activity in words: good activity
[3]
  EC50: > 2100 nM

## O=C1Nc2ccc(Cl)cc2[C@@](C#CC2CC2)(C(F)(F)F)O1 [evafirenz, reference compound]
[1]; MT2, read-out: WT EC50
  EC50: 2 nM

## [O-][n+]1ccc(OCc2ccc(Nc3ncc(Cc4c(F)cccc4F)o3)cc2Cl)cc1 [Compound 3o]
[2]
  EC50: > 2700 nM
[3]
  EC50: > 2100 nM

## Fc1cccc(F)c1Cc1cnc(Nc2ccc(-c3ccncc3)c(Cl)c2)o1 [Compound 3u]
[1]
  anti-HIV-1 activity in words: good activity
